# According to ChEMBL document CHEMBL3885881, “DrugMatrix”:
# Species on record: Rattus norvegicus
# Assay: DrugMatrix - Regimen: Daily Repeat
# Assay type: toxicity, organism-based, Sprague-Dawley
# Design: regimen Daily Repeat, gender Male, age 6-8 weeks
# Settings: in vivo, po, route oral GAVAGE, […]; for ABSOLUTE BASOPHIL / ABSOLUTE EOSINOPHIL / ABSOLUTE LYMPHOCYTE / ABSOLUTE MONOCYTE / ABSOLUTE SEGMENTED NEUTROPHIL / BASOPHIL / EOSINOPHIL / ERYTHROCYTE COUNT / HEMATOCRIT / HEMOGLOBIN / LEUKOCYTE COUNT / LYMPHOCYTE / MEAN CORPUSCULAR HEMOGLOBIN / MEAN CORPUSCULAR HEMOGLOBIN CONCENTRATION / MEAN CORPUSCULAR VOLUME / MONOCYTE / NEUTROPHIL / NUCLEATED RED BLOOD CELLS / PLATELET COUNT: tissue Blood; for ALANINE AMINOTRANSFERASE / ALBUMIN / ALKALINE PHOSPHATASE / ASPARTATE AMINOTRANSFERASE / BLOOD UREA NITROGEN / CARBON DIOXIDE / CHLORIDE / CHOLESTEROL / CREATINE PHOSPHOKINASE / CREATININE / GLUCOSE / LACTATE DEHYDROGENASE / LIPASE / PHOSPHORUS / POTASSIUM / SODIUM / TOTAL BILIRUBIN / TOTAL PROTEIN / URIC ACID: tissue Plasma
# [1] = 0 mg/kg, 72 h, dose level Control, time 3 day
# [2] = 0 mg/kg, 120 h, dose level Control, time 5 day
# [3] = 0.05 mg/kg, 72 h, dose level Low, time 3 day
smiles,measurement,setting,value
COCc1c(C(C)C)nc(C(C)C)c(/C=C/[C@@H](O)C[C@@H](O)CC(=O)O)c1-c1ccc(F)cc1 [CERIVASTATIN],ABSOLUTE BASOPHIL,[1],0 CELLS/uL
same,ABSOLUTE EOSINOPHIL,[1],0 CELLS/uL
same,ABSOLUTE LYMPHOCYTE,[1],11091.17 CELLS/uL
same,ABSOLUTE MONOCYTE,[1],172.17 CELLS/uL
same,ABSOLUTE SEGMENTED NEUTROPHIL,[1],1186.67 CELLS/uL
same,BASOPHIL,[1],0%
same,EOSINOPHIL,[1],0%
same,ERYTHROCYTE COUNT,[1],5.87 x10E6/uL
same,HEMATOCRIT,[1],36.87%
same,HEMOGLOBIN,[1],14.03 G/DL
same,LEUKOCYTE COUNT,[1],12.45 x10E3/uL
same,LYMPHOCYTE,[1],88.67%
same,MEAN CORPUSCULAR HEMOGLOBIN,[1],23.93 pg
same,MEAN CORPUSCULAR HEMOGLOBIN CONCENTRATION,[1],38.1 G/DL
same,MEAN CORPUSCULAR VOLUME,[1],62.73 fL
same,MONOCYTE,[1],1.5%
same,NEUTROPHIL,[1],9.83%
same,NUCLEATED RED BLOOD CELLS,[1],0 /100WBC
same,PLATELET COUNT,[1],1150.33 x10E3/uL
same,ALANINE AMINOTRANSFERASE,[1],67.17 u/L
same,ALBUMIN,[1],4.03 G/DL
same,ALKALINE PHOSPHATASE,[1],462.5 u/L
same,ASPARTATE AMINOTRANSFERASE,[1],88 u/L
same,BLOOD UREA NITROGEN,[1],13.17 mg/dL
same,CARBON DIOXIDE,[1],29.33 mmol/L
same,CHLORIDE,[1],101 MEQ/L
same,CHOLESTEROL,[1],69.17 mg/dL
same,CREATINE PHOSPHOKINASE,[1],292.5 u/L
same,CREATININE,[1],0.17 mg/dL
same,GLUCOSE,[1],167.5 mg/dL
same,LACTATE DEHYDROGENASE,[1],198.5 u/L
same,LIPASE,[1],10.67 u/L
same,PHOSPHORUS,[1],11.73 mg/dL
same,POTASSIUM,[1],5.91 MEQ/L
same,SODIUM,[1],143.3 MEQ/L
same,TOTAL BILIRUBIN,[1],0.18 mg/dL
same,TOTAL PROTEIN,[1],5.7 G/DL
same,URIC ACID,[1],1.3 mg/dL
same,ABSOLUTE BASOPHIL,[2],0 CELLS/uL
same,ABSOLUTE EOSINOPHIL,[2],64.33 CELLS/uL
same,ABSOLUTE LYMPHOCYTE,[2],12494.67 CELLS/uL
same,ABSOLUTE MONOCYTE,[2],117 CELLS/uL
same,ABSOLUTE SEGMENTED NEUTROPHIL,[2],1340.67 CELLS/uL
same,BASOPHIL,[2],0%
same,EOSINOPHIL,[2],0.33%
same,ERYTHROCYTE COUNT,[2],5.82 x10E6/uL
same,HEMATOCRIT,[2],36.97%
same,HEMOGLOBIN,[2],14.18 G/DL
same,LEUKOCYTE COUNT,[2],14.02 x10E3/uL
same,LYMPHOCYTE,[2],89%
same,MEAN CORPUSCULAR HEMOGLOBIN,[2],24.42 pg
same,MEAN CORPUSCULAR HEMOGLOBIN CONCENTRATION,[2],38.4 G/DL
same,MEAN CORPUSCULAR VOLUME,[2],63.52 fL
same,MONOCYTE,[2],0.83%
same,NEUTROPHIL,[2],9.83%
same,NUCLEATED RED BLOOD CELLS,[2],0 /100WBC
same,PLATELET COUNT,[2],1097.83 x10E3/uL
same,ALANINE AMINOTRANSFERASE,[2],58.83 u/L
same,ALBUMIN,[2],3.92 G/DL
same,ALKALINE PHOSPHATASE,[2],414.17 u/L
same,ASPARTATE AMINOTRANSFERASE,[2],89.17 u/L
same,BLOOD UREA NITROGEN,[2],16.83 mg/dL
same,CARBON DIOXIDE,[2],29.17 mmol/L
same,CHLORIDE,[2],100.33 MEQ/L
same,CHOLESTEROL,[2],54.5 mg/dL
same,CREATINE PHOSPHOKINASE,[2],386.17 u/L
same,CREATININE,[2],0.23 mg/dL
same,GLUCOSE,[2],184.17 mg/dL
same,LACTATE DEHYDROGENASE,[2],229.17 u/L
same,LIPASE,[2],10.83 u/L
same,PHOSPHORUS,[2],10.88 mg/dL
same,POTASSIUM,[2],5.97 MEQ/L
same,SODIUM,[2],142.2 MEQ/L
same,TOTAL BILIRUBIN,[2],0.12 mg/dL
same,TOTAL PROTEIN,[2],5.63 G/DL
same,URIC ACID,[2],1.55 mg/dL
same,ABSOLUTE BASOPHIL,[3],0 CELLS/uL
same,ABSOLUTE EOSINOPHIL,[3],0 CELLS/uL
same,ABSOLUTE LYMPHOCYTE,[3],11310.33 CELLS/uL
same,ABSOLUTE MONOCYTE,[3],175.33 CELLS/uL
same,ABSOLUTE SEGMENTED NEUTROPHIL,[3],1347.67 CELLS/uL
same,BASOPHIL,[3],0%
same,EOSINOPHIL,[3],0%
same,ERYTHROCYTE COUNT,[3],5.68 x10E6/uL
same,HEMATOCRIT,[3],35.3%
same,HEMOGLOBIN,[3],13.6 G/DL
same,LEUKOCYTE COUNT,[3],12.83 x10E3/uL
same,LYMPHOCYTE,[3],88.33%
same,MEAN CORPUSCULAR HEMOGLOBIN,[3],23.97 pg
same,MEAN CORPUSCULAR HEMOGLOBIN CONCENTRATION,[3],38.53 G/DL
same,MEAN CORPUSCULAR VOLUME,[3],62.17 fL
same,MONOCYTE,[3],1.33%
same,NEUTROPHIL,[3],10.33%
same,NUCLEATED RED BLOOD CELLS,[3],0 /100WBC
same,PLATELET COUNT,[3],1230 x10E3/uL
same,ALANINE AMINOTRANSFERASE,[3],65 u/L
same,ALBUMIN,[3],4.07 G/DL
same,ALKALINE PHOSPHATASE,[3],429 u/L
same,ASPARTATE AMINOTRANSFERASE,[3],96.67 u/L
same,BLOOD UREA NITROGEN,[3],15.67 mg/dL
same,CARBON DIOXIDE,[3],25 mmol/L
same,CHLORIDE,[3],103 MEQ/L
same,CHOLESTEROL,[3],64 mg/dL
same,CREATINE PHOSPHOKINASE,[3],269.33 u/L
same,CREATININE,[3],0.13 mg/dL
same,GLUCOSE,[3],169.67 mg/dL
same,LACTATE DEHYDROGENASE,[3],270.33 u/L
same,LIPASE,[3],10 u/L
same,PHOSPHORUS,[3],12.17 mg/dL
same,POTASSIUM,[3],6.2 MEQ/L
same,SODIUM,[3],144.27 MEQ/L
same,TOTAL BILIRUBIN,[3],0.13 mg/dL
same,TOTAL PROTEIN,[3],5.63 G/DL
same,URIC ACID,[3],1.9 mg/dL
